One assay addresses Phosphodiesterase 8 (Homo sapiens, UniProt O95263+O60658). The assay is described as follows: Inhibition of PDE8 (unknown origin) using FAM-cAMP as substrate after 60 mins by fluorescence assay. It counts as protein assay.
Assay [1] addresses cGMP-specific 3',5'-cyclic phosphodiesterase (Homo sapiens, UniProt O76074). The assay is described as follows: Inhibition of PDE5 (unknown origin) using FAM-cGMP as substrate after 60 mins by fluorescence assay.
Another assay has as its target Phosphodiesterase 3 (Homo sapiens, UniProt Q14432+Q13370). The experiment in a line: Inhibition of PDE3 (unknown origin) using FAM-cGMP and FAM-cAMP as substrate after 60 mins by fluorescence assay. In kind it is protein assay.
Assay [2] concerns the target High affinity cGMP-specific 3',5'-cyclic phosphodiesterase 9A (Homo sapiens, UniProt O76083). The assay is described as follows: Inhibition of PDE9 (unknown origin) using FAM-cGMP as substrate after 60 mins by fluorescence assay.
Another assay has as its target Phosphodiesterase 1 (Homo sapiens, UniProt P54750+Q01064+Q14123). The assay is described as follows: Inhibition of PDE1 (unknown origin) using FAM-cGMP and FAM-cAMP as substrate after 60 mins by fluorescence assay. It counts as protein assay.
In assay [3] the target is cAMP and cAMP-inhibited cGMP 3',5'-cyclic phosphodiesterase 10A (Homo sapiens, UniProt Q9Y233). The assay is described as follows: Inhibition of PDE10 (unknown origin) using FAM-cGMP and FAM-cAMP as substrate after 60 mins by fluorescence assay.
The target in another assay is Phosphodiesterase 7 (Homo sapiens, UniProt Q13946+Q9NP56). The experiment in a line: Inhibition of PDE7 (unknown origin) using FAM-cAMP as substrate after 60 mins by fluorescence assay. It counts as protein assay.
Assay [4] addresses cGMP-dependent 3',5'-cyclic phosphodiesterase (Homo sapiens, UniProt O00408). The experiment in a line: Inhibition of PDE2 (unknown origin) using FAM-cGMP and FAM-cAMP as substrate after 60 mins by fluorescence assay.

pIC50: −log10 of the molar value.

Consider four compounds from ChEMBL document CHEMBL2331505, “Synthesis of quinoline derivatives: discovery of a potent and selective phosphodiesterase 5 inhibitor for the treatment of Alzheimer's disease” (Eur J Med Chem, 2013).

High affinity cGMP-specific 3',5'-cyclic phosphodiesterase 9A, sequence (O76083 whole entry): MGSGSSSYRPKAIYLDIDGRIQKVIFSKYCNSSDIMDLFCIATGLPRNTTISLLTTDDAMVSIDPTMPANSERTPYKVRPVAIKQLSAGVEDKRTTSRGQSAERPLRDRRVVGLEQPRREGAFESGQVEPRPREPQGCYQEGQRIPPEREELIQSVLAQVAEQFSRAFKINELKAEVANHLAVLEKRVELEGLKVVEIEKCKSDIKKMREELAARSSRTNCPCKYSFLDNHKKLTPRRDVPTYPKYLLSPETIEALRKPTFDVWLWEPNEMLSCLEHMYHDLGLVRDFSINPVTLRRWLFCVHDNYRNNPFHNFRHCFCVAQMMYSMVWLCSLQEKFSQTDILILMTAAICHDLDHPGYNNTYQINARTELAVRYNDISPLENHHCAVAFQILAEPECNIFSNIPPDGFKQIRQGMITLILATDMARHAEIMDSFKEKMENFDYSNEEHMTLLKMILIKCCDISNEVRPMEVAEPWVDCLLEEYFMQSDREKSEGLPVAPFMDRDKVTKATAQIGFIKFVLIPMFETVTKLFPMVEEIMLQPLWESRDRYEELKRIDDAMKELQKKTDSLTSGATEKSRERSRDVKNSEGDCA
cAMP and cAMP-inhibited cGMP 3',5'-cyclic phosphodiesterase 10A, sequence (Q9Y233 whole entry): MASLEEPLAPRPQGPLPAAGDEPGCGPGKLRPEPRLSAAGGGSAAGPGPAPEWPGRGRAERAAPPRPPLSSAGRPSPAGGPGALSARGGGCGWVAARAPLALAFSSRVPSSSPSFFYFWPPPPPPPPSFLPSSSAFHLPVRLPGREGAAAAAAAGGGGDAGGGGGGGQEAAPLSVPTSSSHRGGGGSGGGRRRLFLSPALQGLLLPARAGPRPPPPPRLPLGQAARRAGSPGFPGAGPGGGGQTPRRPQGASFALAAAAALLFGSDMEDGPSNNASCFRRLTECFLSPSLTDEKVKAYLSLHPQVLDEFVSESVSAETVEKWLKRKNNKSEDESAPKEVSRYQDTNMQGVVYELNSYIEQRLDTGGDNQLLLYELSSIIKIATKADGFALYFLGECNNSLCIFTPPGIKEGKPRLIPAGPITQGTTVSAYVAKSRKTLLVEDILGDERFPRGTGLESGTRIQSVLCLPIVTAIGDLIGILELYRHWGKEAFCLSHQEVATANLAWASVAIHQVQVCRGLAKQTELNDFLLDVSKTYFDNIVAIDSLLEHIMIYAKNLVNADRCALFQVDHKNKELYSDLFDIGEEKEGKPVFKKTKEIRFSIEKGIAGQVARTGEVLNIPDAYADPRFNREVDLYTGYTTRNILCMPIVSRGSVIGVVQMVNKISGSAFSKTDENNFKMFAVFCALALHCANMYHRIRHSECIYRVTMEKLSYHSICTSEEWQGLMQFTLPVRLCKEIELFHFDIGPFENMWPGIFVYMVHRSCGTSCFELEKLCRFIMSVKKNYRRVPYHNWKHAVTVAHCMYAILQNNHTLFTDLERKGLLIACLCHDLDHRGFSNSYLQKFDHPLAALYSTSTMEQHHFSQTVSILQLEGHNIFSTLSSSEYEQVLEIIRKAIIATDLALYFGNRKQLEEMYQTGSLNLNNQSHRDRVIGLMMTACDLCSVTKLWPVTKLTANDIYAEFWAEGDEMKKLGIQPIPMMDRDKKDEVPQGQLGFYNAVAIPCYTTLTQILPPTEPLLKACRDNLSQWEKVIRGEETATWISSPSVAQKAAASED
cGMP-dependent 3',5'-cyclic phosphodiesterase, sequence (O00408 whole entry): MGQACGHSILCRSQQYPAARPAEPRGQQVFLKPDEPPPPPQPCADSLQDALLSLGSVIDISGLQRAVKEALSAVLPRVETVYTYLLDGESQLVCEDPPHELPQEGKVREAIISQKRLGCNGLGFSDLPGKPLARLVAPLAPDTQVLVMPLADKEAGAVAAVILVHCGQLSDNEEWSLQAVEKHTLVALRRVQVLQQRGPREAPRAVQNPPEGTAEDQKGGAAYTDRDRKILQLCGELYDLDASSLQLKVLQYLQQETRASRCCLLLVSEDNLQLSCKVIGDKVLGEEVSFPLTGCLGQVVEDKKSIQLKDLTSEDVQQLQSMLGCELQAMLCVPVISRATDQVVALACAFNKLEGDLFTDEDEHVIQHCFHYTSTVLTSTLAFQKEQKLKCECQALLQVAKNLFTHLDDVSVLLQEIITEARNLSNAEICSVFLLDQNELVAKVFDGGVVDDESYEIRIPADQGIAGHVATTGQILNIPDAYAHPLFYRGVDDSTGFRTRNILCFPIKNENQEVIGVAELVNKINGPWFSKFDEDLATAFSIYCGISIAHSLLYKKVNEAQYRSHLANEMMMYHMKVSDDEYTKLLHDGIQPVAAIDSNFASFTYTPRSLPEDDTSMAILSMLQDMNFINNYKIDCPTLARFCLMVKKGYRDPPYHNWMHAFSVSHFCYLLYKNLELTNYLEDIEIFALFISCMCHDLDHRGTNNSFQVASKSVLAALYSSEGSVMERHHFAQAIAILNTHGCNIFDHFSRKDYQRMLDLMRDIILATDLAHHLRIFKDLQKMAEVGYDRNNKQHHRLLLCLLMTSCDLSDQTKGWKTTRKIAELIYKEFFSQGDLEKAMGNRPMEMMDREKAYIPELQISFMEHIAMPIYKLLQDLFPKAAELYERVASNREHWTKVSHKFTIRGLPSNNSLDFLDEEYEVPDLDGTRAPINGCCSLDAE

As for `CCCc1nc(C)c2c(=O)nc(-c3cc(S(=O)(=O)N4CCN(CC)CC4)ccc3OCC)[nH]n12`, the IC50 (usually the midpoint of a concentration-inhibition curve) against Phosphodiesterase 8 is greater than 10 µM.
`CCNc1cc(C#N)cc2c(NCc3ccc(OC)c(Cl)c3)c(CO)cnc12`: the pIC50 (commonly the IC50 on a negative log10 scale, so that one unit is a factor of ten) in assay [1] was 7.82.
Consider `CN1CC(=O)N2[C@H](c3ccc4c(c3)OCO4)c3[nH]c4ccccc4c3C[C@@H]2C1=O`, for which the IC50 at Phosphodiesterase 3, on Phosphodiesterase 8, against Phosphodiesterase 1 and on Phosphodiesterase 7 was greater than 10 µM in each case. Besides, the pIC50 in assay [2], in assay [3] and in assay [4] was less than 5.00 each time.
In assay [1], `COc1ccc(CNc2c(CO)cnc3c(NCCN(C)C)cc(C#N)cc23)cc1Cl` had a pIC50 of 8.37.
